Experiment [1] deals with T1, D-3-phosphoglycerate dehydrogenase (Homo sapiens) (UniProt O43175).
T1 sequence (whole entry): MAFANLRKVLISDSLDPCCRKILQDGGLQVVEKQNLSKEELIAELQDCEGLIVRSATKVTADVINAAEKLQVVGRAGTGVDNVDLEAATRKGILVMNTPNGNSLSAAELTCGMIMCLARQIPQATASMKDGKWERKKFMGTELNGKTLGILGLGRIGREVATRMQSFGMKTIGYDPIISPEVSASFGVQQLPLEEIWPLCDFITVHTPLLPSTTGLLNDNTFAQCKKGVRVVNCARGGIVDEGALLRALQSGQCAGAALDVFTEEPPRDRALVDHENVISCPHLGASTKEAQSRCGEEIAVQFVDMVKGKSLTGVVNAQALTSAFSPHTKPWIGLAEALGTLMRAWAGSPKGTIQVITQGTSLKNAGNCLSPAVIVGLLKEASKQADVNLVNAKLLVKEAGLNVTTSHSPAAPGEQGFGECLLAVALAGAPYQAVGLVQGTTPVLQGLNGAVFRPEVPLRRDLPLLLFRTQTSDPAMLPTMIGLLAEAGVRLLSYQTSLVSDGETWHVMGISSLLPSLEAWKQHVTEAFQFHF
As to the kind of experiment: Inhibition of N-terminal His6-tagged human liver PHGDH expressed in Escherichia coli Rosetta (DE3)pLysS at 57 uM using 3-phosphoglycerate as substrate after 20 mins in presence of NAD+ by resazurin fluorescence based PSAT1/diaphorase/PSPH coupled enzyme assay.

In experiment [2] the target is T2, D-3-phosphoglycerate dehydrogenase (Homo sapiens, UniProt O43175).
T2 sequence (O43175 whole entry): T1 sequence (whole entry)

As a reminder, the inhibition is the change of the read-out against control, counted positive when it falls. By IC50 is commonly meant the concentration at which inhibition is half-maximal.

Turning to `Cc1ccnc(NC(=O)N2CCN(c3cccc(C(F)(F)F)c3)CC2)c1`, the Imax in experiment [1] is 16%.

In the case of `Cc1cc(C)nc(NC(=S)N2CCN(C(=O)c3ccc(C(F)(F)F)cc3)CC2)c1`, in experiment [1], the inhibition was 85%. This compound also registered a half-inhibitory concentration (IC50) in experiment [2] of 19 µM. The matching figures for `Cc1cc(C)nc(NC(=S)N2CCN(Cc3ccc(F)cc3)CC2)c1`: 86% and 38 µM. The matching figures for `FC(F)(F)c1cccc(N2CCN(C(=S)Nc3ccc4ccccc4n3)CC2)c1`: 90% and 10 µM.

With `Cc1cc(C)nc(NC(=S)N2CCCC(NCc3ccc(C(F)(F)F)cc3)C2)c1` (configuration not stated), the inhibition in experiment [1] came out at 89%. The same compound returned an IC50 in experiment [2] of 12 µM.

Regarding `Cc1ccc(CN2CCN(C(=S)Nc3cc(C)cc(C)n3)CC2)cc1`, in experiment [1], the inhibition was determined as 93%. This compound returned an IC50 in experiment [2] of 17 µM. The matching figures for `Cc1cc(C)nc(NC(=S)N2CCN(Cc3ccc(C(F)(F)F)cc3)C(c3ccccc3)C2)c1` (configuration not stated): 111% and 31 µM.

As for `Cc1cc(C)nc(NC(=S)N2CCN(c3cccc(C(F)(F)F)n3)CC2)c1`, in experiment [1], the inhibition was found to be 100%. Besides, in experiment [2], it took 11 µM to reach half-maximal inhibition (IC50). As for `Cc1cc(C)nc(NC(=S)N2CCC(NC(=O)c3ccc(C(F)(F)F)cc3)CC2)c1`, in experiment [1], the inhibition amounted to 90%. For the same compound, 10 µM corresponded to half-maximal inhibition in experiment [2] (IC50). As for `Cc1cc(C)nc(NC(=S)N2CCC(NC(=O)c3cccc(C(F)(F)F)c3)CC2)c1`, the inhibition in experiment [1] is 94%. In experiment [2], this compound gave an IC50 of 11 µM. For the compound `Cc1cc(NC(=S)N2CCN(c3cccc(C(F)(F)F)c3)CC2)nc2ccccc12`, the inhibition in experiment [1] came out at 119%. The same compound had a half-inhibitory concentration (IC50) in experiment [2] of 21 µM. The matching figures for `Cc1cc(C)nc(NC(=S)N2CCN(Cc3cccc(Cl)c3)CC2)c1`: 90% and 11 µM. As for `Cc1cc(C)nc(NC(=S)N2C[C@@H](C)N(Cc3ccc(C(F)(F)F)cc3)[C@@H](C)C2)c1`, in experiment [1], the Imax turned out to be 16%. As for `Cc1ccnc(CC(=S)N2CCN(c3cccc(C(F)(F)F)c3)CC2)c1`, in experiment [1], the Imax worked out at 37%. `FC(F)(F)c1cccc(N2CCN(C(=S)Nc3cc(C(F)(F)F)ccn3)CC2)c1`: the inhibition in experiment [1] worked out at 61%. In experiment [2], this compound yielded a concentration for half-maximal inhibition (IC50) of 6.4 µM. The matching figures for `Cc1cc(C)nc(NC(=S)N2CCN(c3ccccn3)CC2)c1`: 73% and 37 µM. The matching figures for `FC(F)(F)c1cccc(N2CCN(C(=S)Nc3cccnc3)CC2)c1`: 67% and 8.9 µM. The matching figures for `Cc1cc(C)nc(NC(=S)N2CCN(c3ccc(C(F)(F)F)cc3)CC2)c1`: 98% and 4.3 µM.

As to `Cc1cc(C)nc(NC(=S)N2CCN(Cc3ccc(Cl)cc3)CC2)c1`, in experiment [1], the inhibition is 97%. 15 µM corresponded to half-maximal inhibition in experiment [2] (IC50).

Regarding `Cc1cc(C)nc(NC(=S)N2CCN(Cc3ccccc3F)CC2)c1`, the inhibition in experiment [1] came out at 56%. In experiment [2], this compound showed an IC50 of 41 µM. Consider `Cc1cc(C)nc(NC(=S)N2CCN(Cc3ccc(C(F)(F)F)cc3)[C@H](C)C2)c1`, for which, in experiment [1], the inhibition worked out at 94%. The same compound yielded an IC50 in experiment [2] of 12 µM. The like results for `COc1ccccc1N1CCN(C(=S)Nc2cc(C)cc(C)n2)CC1` were, in that order, 109% and 24 µM. As to `Cc1cc(C)nc(NC(=S)N2CCN(Cc3ccc(C(F)(F)F)cc3)C(C(=O)O)C2)c1` (configuration not stated), the inhibition in experiment [1] turned out to be 93%. Besides, the IC50 in experiment [2] is 33 µM.

`COc1cccc(N2CCN(C(=S)Nc3cc(C)cc(C)n3)CC2)c1`: the inhibition in experiment [1] stood at 101%. This compound gave an IC50 in experiment [2] of 14 µM. As to `Cc1cc(C)nc(NC(=S)N2CC3CN(Cc4ccc(C(F)(F)F)cc4)CC3C2)c1` (configuration not stated), the inhibition in experiment [1] was 93%. In experiment [2], this compound came in with an IC50 of 16 µM. The like results for `Cc1cc(C)nc(NC(=S)NCCNCc2ccc(C(F)(F)F)cc2)c1` were, in that order, 41% and 9.7 µM. `Cc1cc(C)nc(NC(=S)NCCN(C)Cc2ccc(C(F)(F)F)cc2)c1`: in experiment [1], the inhibition amounted to 66%. The same compound registered an IC50 in experiment [2] of 21 µM. In the case of `Cc1ccnc(NC(=S)N2CCN(c3cccc(C(F)(F)F)c3)CC2)c1`, the inhibition in experiment [1] worked out at 92%. For the compound `Cc1cc(C)nc(NC(=S)N2CCCC(NC(=O)c3ccc(C(F)(F)F)cc3)C2)c1` (configuration not stated), the inhibition in experiment [1] came out at 88%. This compound came in with a half-inhibitory concentration (IC50) in experiment [2] of 8.7 µM. The like results for `COc1cccc(CN2CCN(C(=S)Nc3cc(C)cc(C)n3)CC2)c1` were, in that order, 94% and 30 µM. Regarding `Cc1cc(C)nc(NC(=S)N2CCN(c3ccc(C(F)(F)F)cn3)CC2)c1`, the inhibition in experiment [1] stood at 96%. As for `Cc1cc(C)nc(NC(=S)N2CCN(CCc3ccc(C(F)(F)F)cc3)CC2)c1`, the inhibition in experiment [1] turned out to be 87%. This compound also displayed an IC50 in experiment [2] of 23 µM.

On to `Cc1cc(C)nc(NC(=S)N2CCN(Cc3ccccc3C)CC2)c1`, for which the inhibition in experiment [1] turned out to be 85%. The same compound returned an IC50 in experiment [2] of 9.2 µM. For `Cc1ccnc(N(C)C(=S)N2CCN(c3cccc(C(F)(F)F)c3)CC2)c1`, the Imax in experiment [1] was determined as 38%. In the case of `Cc1cc(C)nc(NC(=S)N2CCCC(NC(=O)c3cccc(C(F)(F)F)c3)C2)c1` (configuration not stated), the inhibition in experiment [1] amounted to 91%. The IC50 in experiment [2] is 10 µM.

In the case of `Cc1cc(C)nc(NC(=S)N2CCN(Cc3ccc(C(F)(F)F)cc3)C(CO)C2)c1` (configuration not stated), the inhibition in experiment [1] stood at 89%. Also, the half-inhibitory concentration (IC50) in experiment [2] is 5.8 µM. The matching figures for `Cc1cc(C)nc(NC(=S)N2CCCN(Cc3ccc(C(F)(F)F)cc3)CC2)c1`: 82% and 7.3 µM.

With `Cc1cc(C)nc(NC(=S)N2CCN(Cc3cccnc3)CC2)c1`, the Imax in experiment [1] was 34%. Turning to `Cc1ccnc(NC(=S)N2CCN(c3cccc(C(F)(F)F)c3)CC2)n1`, in experiment [1], the inhibition was found to be 111%. In experiment [2], this compound registered a half-maximal inhibitory concentration (IC50) of 37 µM. Take `COc1ccc(N2CCN(C(=S)Nc3cc(C)cc(C)n3)CC2)cc1`: the inhibition in experiment [1] stood at 99%. Also, half-maximal inhibition in experiment [2] (IC50) was put at 16 µM. For `Cc1cc(C)nc(NC(=S)N2CCN(C(=O)c3cccc(C(F)(F)F)c3)CC2)c1`, the inhibition in experiment [1] stood at 101%. In experiment [2], this compound registered an IC50 of 22 µM. With `Cc1cc(C)nc(NC(=S)N2CCC(Nc3ccc(C(F)(F)F)cc3)CC2)c1`, in experiment [1], the inhibition turned out to be 97%. In experiment [2], the IC50 is 7.7 µM. As for `COC(=O)c1ccnc(NC(=S)N2CCN(c3cccc(C(F)(F)F)c3)CC2)c1`, the inhibition in experiment [1] turned out to be 73%. In addition, in experiment [2], the IC50 amounted to 13 µM. With `Cc1ccnc(C(=S)N2CCN(c3cccc(C(F)(F)F)c3)CC2)c1`, in experiment [1], the Imax turned out to be 9%. In the case of `Cc1cc(C)nc(NC(=S)N(C)CCN(C)Cc2ccc(C(F)(F)F)cc2)c1`, in experiment [1], the inhibition was 84%. In experiment [2], this compound showed a half-maximal inhibitory concentration (IC50) of 7.3 µM.

As to `Cc1cc(C)nc(NC(=S)N2CCN(c3cccnc3)CC2)c1`, in experiment [1], the inhibition was found to be 68%. Moreover, the IC50 in experiment [2] was 50 µM. The matching figures for `Cc1cc(C)nc(NC(=S)N2CCC(Nc3cccc(C(F)(F)F)c3)CC2)c1`: 90% and 6.5 µM. In the case of `Cc1cc(C)nc(NC(=S)N2CCN(Cc3ccccc3)CC2)c1`, the inhibition in experiment [1] turned out to be 78%. The compound further returned a 50% inhibitory concentration (IC50) in experiment [2] of 40 µM.

As for `Cc1ccnc(NC(=N)N2CCN(c3cccc(C(F)(F)F)c3)CC2)c1`, the Imax in experiment [1] came to 2%. The same measure, in the same setting: the same measure for `Cc1cccc(NC(=S)N2CCN(c3cccc(C(F)(F)F)c3)CC2)c1`: 20%. For the compound `COc1ccccc1CN1CCN(C(=S)Nc2cc(C)cc(C)n2)CC1`, in experiment [1], the Imax amounted to 21%.

As for `Cc1cc(C)nc(NC(=S)N2CCN(Cc3ccc(C(F)(F)F)cc3)CC2)c1`, the inhibition in experiment [1] stood at 96%.

These data come from ChEMBL document CHEMBL4118111, “Discovery and optimization of piperazine-1-thiourea-based human phosphoglycerate dehydrogenase inhibitors” (Bioorg Med Chem, 2018).
